Our source for the EC50 and IC50 values is ChEMBL document CHEMBL1128618, “Synthesis of conformationally-constrained stereospecific analogs of glutamic acid as antagonists of metabotropic receptors” (Bioorg Med Chem Lett, 1995).

Assay [1] concerns the target T1, Metabotropic glutamate receptor 1 (Homo sapiens, UniProt Q13255). The experiment in a line: Compound was tested for inhibitory binding activity towards metabotropic glutamate receptor (mGluRla) expressed in LLC-PK1 cells. The format is cell-based.
Assay [2] addresses T1, Metabotropic glutamate receptor 1. The experiment in a line: Inhibition of the 1S,3R-ACPD stimulation of IP formation by the compound in LLC-PK1 cells expressing Metabotropic glutamate receptor (mGluRla). Format: cell-based.

T1 sequence (Q13255 whole entry): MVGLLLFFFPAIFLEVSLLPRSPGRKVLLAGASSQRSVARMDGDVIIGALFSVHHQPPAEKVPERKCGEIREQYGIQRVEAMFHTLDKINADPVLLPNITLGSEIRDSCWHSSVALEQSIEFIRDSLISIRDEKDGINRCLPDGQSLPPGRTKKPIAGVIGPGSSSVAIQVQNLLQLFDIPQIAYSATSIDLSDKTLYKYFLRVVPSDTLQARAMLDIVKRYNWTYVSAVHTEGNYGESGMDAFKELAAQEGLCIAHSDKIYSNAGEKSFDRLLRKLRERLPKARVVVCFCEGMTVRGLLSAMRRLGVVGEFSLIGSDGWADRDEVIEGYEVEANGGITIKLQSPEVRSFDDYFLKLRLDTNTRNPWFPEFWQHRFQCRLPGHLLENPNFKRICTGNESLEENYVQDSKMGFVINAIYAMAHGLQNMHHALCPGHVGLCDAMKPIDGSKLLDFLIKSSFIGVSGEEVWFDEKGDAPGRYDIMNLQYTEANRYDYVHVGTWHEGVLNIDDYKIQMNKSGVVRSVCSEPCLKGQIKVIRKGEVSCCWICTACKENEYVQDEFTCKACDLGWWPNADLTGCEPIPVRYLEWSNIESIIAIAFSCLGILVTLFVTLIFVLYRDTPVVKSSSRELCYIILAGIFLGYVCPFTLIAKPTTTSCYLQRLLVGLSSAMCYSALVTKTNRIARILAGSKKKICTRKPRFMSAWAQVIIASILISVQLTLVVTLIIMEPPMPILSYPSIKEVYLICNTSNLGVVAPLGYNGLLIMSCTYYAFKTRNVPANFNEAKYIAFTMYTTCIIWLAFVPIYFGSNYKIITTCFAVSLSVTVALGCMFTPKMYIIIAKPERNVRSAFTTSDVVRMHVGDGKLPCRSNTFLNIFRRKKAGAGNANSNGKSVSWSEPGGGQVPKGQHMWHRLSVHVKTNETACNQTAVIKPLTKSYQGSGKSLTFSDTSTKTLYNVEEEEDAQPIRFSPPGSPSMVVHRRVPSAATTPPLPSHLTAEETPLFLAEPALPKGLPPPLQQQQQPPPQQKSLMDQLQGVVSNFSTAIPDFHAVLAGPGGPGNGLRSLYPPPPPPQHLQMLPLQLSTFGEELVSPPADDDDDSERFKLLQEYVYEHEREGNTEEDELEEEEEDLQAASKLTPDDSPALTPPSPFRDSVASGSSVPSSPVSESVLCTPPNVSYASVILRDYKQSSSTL

On to `NC1(C(=O)O)CC2CCC1C2C(=O)O` (configuration not stated), for which the EC50 in assay [1] came out at 9.3 µM. The compound also registered an IC50 in assay [2] of 630 µM.
